In patent publication US20060008891A1, “Cathepsin G-related peptides as modulators of formylpeptide receptors (FPR)” (The Government of USA as repersented by the Secretary, …, priority 2004, published 2006):
Several values for one entry are separate records, joined by “and”; a condition that tells them apart may be missing. Equal values may be shown once.

Tested on: monocytes
Test: Chemotaxis assay, monocytes
Format: cell-based, human
Protocol: Human PBMC were isolated from leukopacks obtained through the courtesy of Transfusion Medicine Department, National Institutes of Health Clinical Center (Bethesda, Md.) by Ficoll-Hypaque density gradient centrifugation. Monocytes were purified from human PBMC by Percoll gradient to yield>90% pure preparations. […] H. Ali and R. Snyderman, Duke University (Durham, N.C.) and maintained in the presence of 0.8 mg/ml geneticin (G418, Life Technologies, Rockville, Md.) in DMEM supplemented with 10% FCS. B. Chemotaxis assay Migration of phagocytes and ETFR cells was assessed using a 48-well microchemotaxis chamber (Neuroprobe, Cabin John, Md.) as previously described (Hu et al. (2001) J Leukoc Biol 70 15512). Briefly, different concentrations of stimulants were placed in the wells of the lower compartment of the chamber, and 50 μl cells (1.5×10^6 cells/ml for monocyte and neutrophil, 1×10^6 ETFR cells/ml) were added to the wells of the upper compartment. The lower and upper compartments were separated by either a 5-μm (for monocyte) or a 10-μm pore size, collagen-coated (for ETFR cells) polycarbonate filter (Osmonics, Livermore, Calif.). After incubation at 37° C. in humidified air with 5% CO2 (60 min for neutrophils, 90 min for monocytes, 4.5 h for ETFR cells), the filter was removed and stained, and the cells migrating across the filter were counted with light microscopy. The results are presented as the mean number of cells (±SD) in three high power fields (HPFs). […] After thorough washing with cold medium (RPMI 1640, 1% BSA), the cells were resuspended and assayed. To measure the effect of various signaling inhibitors, unless otherwise indicated, the cells were pre-incubated at 37° C. for 60 min with the inhibitors, and were then added to the upper wells of the chemotaxis chamber.

CaG: Cathepsin G, serine protease purified from neutrophil granules, purchased from Athens Research & Technology
concentration of maximal activity in monocyte migration (human monocytes): 5 μg/ml and 200 nM
monocyte migration induced by stimulant (human monocytes): dose-dependently induced monocyte migration
concentration range potently chemotactic (monocytes): 4 to 400 nM
attenuation of monocyte chemotaxis to fMLF after preincubation (preincubated with CaG 10 μg/ml 30 min 37° C., low concentrations of fMLF): able to attenuate monocyte chemotaxis to low concentrations of fMLF
